According to ChEMBL document CHEMBL2203051, “Synthesis of new opioid derivatives with a propellane skeleton and their pharmacologies: part 3, novel propellane derivatives with pentacyclic skeletons” (Bioorg Med Chem Lett, 2012):
pKi: −log10 of the molar value.

Key:
Mus musculus = organism: Mus musculus; assay: Selectivity ratio of Ki for delta opioid receptor mouse whole brain without cerebellum to Ki for kappa opioid receptor in mouse whole brain without cerebellum
[1] = Selectivity ratio of Ki for mu opioid receptor in […] to Ki for kappa opioid receptor in mouse whole brain without cerebellum
[2] = target: Kappa-type opioid receptor (Mus musculus, UniProt P33534); assay: Displacement of [3H]U-69,593 from kappa opioid receptor in mouse whole brain without cerebellum
Mu-type opioid receptor = Mu-type opioid receptor (Cavia porcellus, UniProt P97266); assay: Displacement of [3H]DAMGO from mu opioid receptor in […]
[3] = target: Delta-type opioid receptor (Mus musculus, UniProt P32300); assay: Displacement of [3H][…] from delta opioid receptor in mouse whole brain without cerebellum
Sequence of Delta-type opioid receptor (P32300 whole entry): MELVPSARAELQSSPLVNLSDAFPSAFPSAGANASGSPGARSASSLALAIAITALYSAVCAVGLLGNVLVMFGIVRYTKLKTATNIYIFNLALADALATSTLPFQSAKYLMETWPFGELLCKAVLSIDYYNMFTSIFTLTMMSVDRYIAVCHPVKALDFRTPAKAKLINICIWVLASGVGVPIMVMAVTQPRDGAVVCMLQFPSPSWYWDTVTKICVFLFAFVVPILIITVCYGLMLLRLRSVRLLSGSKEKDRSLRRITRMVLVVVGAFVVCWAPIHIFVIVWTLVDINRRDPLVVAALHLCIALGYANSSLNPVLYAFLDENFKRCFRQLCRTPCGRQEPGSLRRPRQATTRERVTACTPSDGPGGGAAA

Sequence of Kappa-type opioid receptor (P33534 whole entry): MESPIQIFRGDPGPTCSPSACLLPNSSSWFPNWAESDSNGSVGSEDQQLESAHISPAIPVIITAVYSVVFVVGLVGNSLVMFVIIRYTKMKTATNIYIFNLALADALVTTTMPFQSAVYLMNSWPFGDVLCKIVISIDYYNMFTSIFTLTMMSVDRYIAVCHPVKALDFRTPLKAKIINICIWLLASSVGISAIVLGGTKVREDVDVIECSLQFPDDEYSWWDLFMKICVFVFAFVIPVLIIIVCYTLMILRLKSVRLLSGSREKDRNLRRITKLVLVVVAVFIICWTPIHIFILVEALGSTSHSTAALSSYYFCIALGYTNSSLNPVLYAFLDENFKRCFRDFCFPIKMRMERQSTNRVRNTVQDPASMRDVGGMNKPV
Sequence of Mu-type opioid receptor (P97266 whole entry): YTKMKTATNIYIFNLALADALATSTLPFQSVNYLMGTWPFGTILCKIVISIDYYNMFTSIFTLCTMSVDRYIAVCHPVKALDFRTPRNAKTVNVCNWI

Compound	Ratio Ki (Mus musculus)	Ratio Ki [1]	pKi [2]	pKi (Mu-type opioid receptor)	pKi [3]
O=C1CC2N(CC3CC3)CCC34CC(=O)C1CC23Cc1ccc(O)cc14 (stereo not given)	7.26	3.31	7.25	6.73	6.39
O=C1CC23CCN(CC4CC4)C4C[C@H](O)C1CC42Cc1ccc(O)cc13 (stereo not given in full)	8.72	4.22	7.78	7.15	6.84
O=C1CC23CCN(CC4CC4)C4C=CC1CC42Cc1ccc(O)cc13 (stereo not given)	27.2	9.17	8.72	7.75	7.28
O=C1CC23CCN(CC4CC4)C4C[C@@H](O)C1CC42Cc1ccc(O)cc13 (stereo not given in full)	8.9	1.72	8.12	7.88	7.17
O=C1CC23CCN(CC4CC4)C4CCC1CC42Cc1ccc(O)cc13 (stereo not given)	52	3.82	9.08	8.49	7.36
